Consider 20 compounds from patent publication US20030114445A1, “N3-substituted 6-anilinopyrimidines and methods to treat-Gram-positive bacterial and mycoplasmal infections” (priority 2001, published 2003).

The structures appear in SMILES notation. Converted amounts (≈) assume the structure as drawn. Where two headings read alike, the source gives them in different places. Where only a bound is given, the exact number is not on record here.

The target of one assay is B.subtilis pol IIIC (Bacillus subtilis, UniProt P13267). In words: biochemical. How it is done:
DNA pol activity was assayed as described in Barnes et al., Nuc. Acids Res., 6:1203-19 (1979), using activated “nicked” calf-thymus DNA as template primer, 10 pM [^3H-methyl]-dTTP as the labelled dNTP substrate, and dATP, dCTP, and dGTP at 25 μM each.
Inhibitory activity of the compounds is determined by measuring the ability of the agent to inhibit enzyme-catalyzed incorporation of [^3H]-dTMP into nicked calf thymus DNA in the absence of the competitor dGTP or dATP (“truncated assay”) (see G. E. Wright and N. C. Brown, Inhibition of Bacillus subtilis DNA Polymerase III by Arylhydrazinopyrimidines: Novel Properties of 2-Thiouracil Derivatives, Biochim. Biophys. Acta 432:37-48 (1976)). Purified pol IIIC is added to a buffered solution containing Mg^2+, DTT, glycerol, nicked calf thymus DNA, saturating concentrations of dATP, dCTP, dTTP and [^3H]-dTTP. Reaction mixtures are incubated at 30° C. for 10 minutes, quenched and filtered, and radioactivity in the acid-insoluble material measured by scintillation counting. Experiments are done in triplicate. Inhibitors are assayed by addition of several dilutions of a stock solution of inhibitor (DMSO or water, depending on solubility) before enzyme addition. […] The truncated assay, i.e. exclusion of the competitive substrate dGTP or dATP, depending upon whether the compound is a uracil derivative or an isocytosine derivative, respectively, allows for the direct determination of apparent inhibitor constants (K,) in this assay system.

Another assay deals with E. fecium. In words: Inhibition of bacterial growth on agar plates (MIC). The assay is classed as cell-based. The note with it: 37° C., 24 hours. The method, then: (§1) Each compound is assayed against a panel of Bacillus, Enterococcus and Staphylococcus, and a Gram-negative bacterium Escherichia coli as negative control, grown in appropriate plate media solidified with 1.3% agar-agar. Stock solutions of the compounds in dimethylsulfoxide or water, depending on solubility, are added to sterile medium at a temperature of 60° C. […] One tenth mL of diluted bacteria containing 500-1000 colony-forming units (CFU) are plated and spread, and the plates incubated at 37° C. for 24 hours. MIC (minimum inhibitory concentration) is equivalent to the lowest concentration at which growth, i.e. colony formation, is not observed.

For a further assay, the system named is B. subtilis. The assay is described as above. The assay is classed as cell-based. The note with it: Bacillus subtilis, 37° C., 24 hours. The method, then: as §1
In a further assay the test system is S.aureus (Smith). The assay is described as above. Particulars: Staphylococcus aureus, 37° C., 24 hours. The assay is classed as cell-based. How it is done: as §1
In the next assay the test system is E. fecalis. Described as above. Particulars: 37° C., 24 hours. The assay is classed as cell-based. How it is done: as §1
[1] abbreviates: truncated assay, apparent inhibitor constant, read-out: K1 B.subtilis pol IIIC.

Sequence of B.subtilis pol IIIC (P13267 whole entry): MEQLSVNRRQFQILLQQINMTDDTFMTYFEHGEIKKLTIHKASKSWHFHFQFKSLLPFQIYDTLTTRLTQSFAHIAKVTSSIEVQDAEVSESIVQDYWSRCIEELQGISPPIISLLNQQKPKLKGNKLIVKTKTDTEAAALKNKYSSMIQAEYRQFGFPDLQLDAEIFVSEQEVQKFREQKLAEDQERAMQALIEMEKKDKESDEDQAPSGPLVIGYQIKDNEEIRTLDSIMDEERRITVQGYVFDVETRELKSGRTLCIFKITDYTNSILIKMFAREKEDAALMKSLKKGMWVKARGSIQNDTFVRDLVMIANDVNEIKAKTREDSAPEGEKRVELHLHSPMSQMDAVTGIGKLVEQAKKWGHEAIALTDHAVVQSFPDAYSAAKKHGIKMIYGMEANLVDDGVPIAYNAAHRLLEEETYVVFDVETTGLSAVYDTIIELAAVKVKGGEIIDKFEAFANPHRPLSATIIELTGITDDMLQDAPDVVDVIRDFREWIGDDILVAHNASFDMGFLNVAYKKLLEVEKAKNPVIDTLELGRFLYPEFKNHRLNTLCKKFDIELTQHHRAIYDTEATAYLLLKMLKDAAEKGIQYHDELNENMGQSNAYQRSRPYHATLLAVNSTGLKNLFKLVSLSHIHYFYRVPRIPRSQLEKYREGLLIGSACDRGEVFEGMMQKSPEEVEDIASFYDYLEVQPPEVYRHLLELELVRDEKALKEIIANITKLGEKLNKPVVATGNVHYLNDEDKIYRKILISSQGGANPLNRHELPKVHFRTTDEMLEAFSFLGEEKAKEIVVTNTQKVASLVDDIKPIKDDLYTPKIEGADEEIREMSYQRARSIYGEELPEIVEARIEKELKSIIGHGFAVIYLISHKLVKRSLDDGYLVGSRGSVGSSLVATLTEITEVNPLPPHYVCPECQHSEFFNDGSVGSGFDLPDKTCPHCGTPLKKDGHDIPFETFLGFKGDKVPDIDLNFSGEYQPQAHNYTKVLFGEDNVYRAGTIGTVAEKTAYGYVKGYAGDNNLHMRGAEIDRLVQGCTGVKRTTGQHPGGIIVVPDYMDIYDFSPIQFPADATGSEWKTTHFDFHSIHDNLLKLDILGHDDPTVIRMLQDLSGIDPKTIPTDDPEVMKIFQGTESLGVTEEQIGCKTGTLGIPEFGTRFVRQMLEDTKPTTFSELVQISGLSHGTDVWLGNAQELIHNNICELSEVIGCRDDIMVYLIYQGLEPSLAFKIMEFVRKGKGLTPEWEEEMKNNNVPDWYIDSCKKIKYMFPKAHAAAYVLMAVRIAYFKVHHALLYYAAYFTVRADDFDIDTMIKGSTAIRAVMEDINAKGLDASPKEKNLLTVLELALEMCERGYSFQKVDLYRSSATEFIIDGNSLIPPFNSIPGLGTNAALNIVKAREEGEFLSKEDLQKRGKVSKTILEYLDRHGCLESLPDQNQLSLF

On to `CCc1cc(Nc2cc(=O)n(CCCCCCO)c(=O)[nH]2)ccc1C` [Compound 27, 3-(6-Hydroxyhexyl)-6-(3-ethyl-4-methylanilino)uracil], for which, on B.subtilis pol IIIC, the Ki turned out to be 49 nM. The MIC (usually the least concentration at which growth counts as inhibited) was 5 µg/mL (≈ 14.5 µM) in the assay with E. fecium, less than 1.25 µg/mL against B. subtilis, 2.5 µg/mL (≈ 7.24 µM) against S.aureus (Smith) and 2.5 µg/mL (≈ 7.24 µM) in the assay on E. fecalis.
Compound `CCc1cc(Nc2cc(=O)n(CCCC(=O)O)c(=O)[nH]2)ccc1C` [Compound 31, 3-(3-Carboxypropyl)-6-(3-ethyl-4-methylanilino)uracil] yielded a Ki on B.subtilis pol IIIC of 57 nM. Also, the MIC against E. fecium was 20 µg/mL (≈ 60.4 µM); in the assay on B. subtilis, greater than 20 µg/mL; against S.aureus (Smith), 10 µg/mL (≈ 30.2 µM); with E. fecalis it was greater than 20 µg/mL.
The compound `CCc1cc(Nc2cc(=O)n(C/C=C/CO)c(=O)[nH]2)ccc1C` [Compound 32, 3-(4-Hydroxy-2-butenyl)-6-(3-ethyl-4-methylanilino)uracil] came in with a Ki at B.subtilis pol IIIC of 51 nM. Besides, the MIC in the assay on E. fecium stood at 2.5 µg/mL (≈ 7.93 µM); in the assay on B. subtilis, 1.25 µg/mL (≈ 3.96 µM); against S.aureus (Smith), 5 µg/mL (≈ 15.9 µM); in the assay with E. fecalis, 5 µg/mL (≈ 15.9 µM).
In the case of `CCc1cc(Nc2cc(=O)n(CCCCN3CCSCC3)c(=O)[nH]2)ccc1C` [Compound 36, 3-[(N-Thiomorpholino)butyl]-6-(3-ethyl-4-methylanilino)uracil], the Ki at B.subtilis pol IIIC (setting [1]) was 68 nM. Moreover, the MIC against E. fecium was determined as 5 µg/mL (≈ 12.4 µM); against B. subtilis, 5 µg/mL (≈ 12.4 µM); in the assay with S.aureus (Smith), 10 µg/mL (≈ 24.8 µM); with E. fecalis, 5 µg/mL (≈ 12.4 µM).
On to `CCc1cc(Nc2cc(=O)n(CCCCN3CCC(O)(c4ccc(Cl)c(C(F)(F)F)c4)CC3)c(=O)[nH]2)ccc1C` [Compound 37, 3{[4-(3-Trifluoromethylphenyl-4-chloro-)-4-hydroxypiperidino]butyl}-6-(3-ethyl-4-methylanilino)uracil], for which, on B.subtilis pol IIIC (setting [1]), the Ki is 32 nM. Besides, the MIC amounted to 2.5 µg/mL (≈ 4.32 µM) against E. fecium, 1.25 µg/mL (≈ 2.16 µM) with B. subtilis, 2.5 µg/mL (≈ 4.32 µM) in the assay with S.aureus (Smith) and 2.5 µg/mL (≈ 4.32 µM) in the assay on E. fecalis.
`CCc1cc(Nc2cc(=O)n(CCCCN3CCC(O)(c4ccc(Cl)cc4)CC3)c(=O)[nH]2)ccc1C` [Compound 38, 3{[4-(4-Chlorophenyl)-4-hydroxypiperidino]butyl}-6-(3-ethyl-4-methylanilino)uracil]: the Ki at B.subtilis pol IIIC (setting [1]) turned out to be 25 nM. In addition, the MIC in the assay on E. fecium, with B. subtilis, against S.aureus (Smith) and in the assay on E. fecalis was 5 µg/mL (≈ 9.78 µM) throughout.
As for `CCc1cc(Nc2cc(=O)n(CCN3CCN(C(=O)c4ccccc4)CC3)c(=O)[nH]2)ccc1C` [Compound 39, 3-[2-(4-Benzoylpiperazino)ethyl]-6-(3-ethyl-4-methylanilino)uracil], the Ki at B.subtilis pol IIIC turned out to be 77 nM. In addition, the MIC against E. fecium stood at 5 µg/mL (≈ 10.8 µM); in the assay with B. subtilis, 2.5 µg/mL (≈ 5.42 µM); against S.aureus (Smith) it was 10 µg/mL (≈ 21.7 µM); against E. fecalis, 10 µg/mL (≈ 21.7 µM).
Regarding `CCc1cc(Nc2cc(=O)n(CCCCN3CCN(C(=O)c4ccco4)CC3)c(=O)[nH]2)ccc1C` [Compound 40, 3-{4-[4-(2-Furoyl)piperazino]butyl}-6-(3-ethyl-4-methylanilino)uracil], on B.subtilis pol IIIC (setting [1]), the Ki was determined as 43 nM. The MIC with E. fecium worked out at 10 µg/mL (≈ 20.9 µM); in the assay on B. subtilis, 5 µg/mL (≈ 10.4 µM); with S.aureus (Smith) it was 5 µg/mL (≈ 10.4 µM); against E. fecalis, 5 µg/mL (≈ 10.4 µM).
For `CCc1cc(Nc2cc(=O)n(CCCCN3CCN(Cc4ccccc4)CC3)c(=O)[nH]2)ccc1C` [Compound 41, 3-[4-(4-Benzylpiperazino)butyl]-6-(3-ethyl-4-methylanilino)uracil], at B.subtilis pol IIIC, the Ki was 34 nM. Further, the MIC in the assay with E. fecium was 5 µg/mL (≈ 10.5 µM); against B. subtilis, 5 µg/mL (≈ 10.5 µM); in the assay on S.aureus (Smith), greater than 20 µg/mL; against E. fecalis it was 10 µg/mL (≈ 21 µM).
Regarding `CCc1cc(Nc2cc(=O)n(CCCCN3CCN(c4ncccn4)CC3)c(=O)[nH]2)ccc1C` [Compound 45, 3-{4-[4-(2-pyrimidinyl)piperazinyl]butyl}-6-(3-ethyl-4-methyylanilino)uracil], the Ki on B.subtilis pol IIIC (setting [1]) was 43 nM. Further, the MIC is 5 µg/mL (≈ 10.8 µM) in the assay on E. fecium, 2.5 µg/mL (≈ 5.39 µM) in the assay with B. subtilis, 10 µg/mL (≈ 21.6 µM) against S.aureus (Smith) and 5 µg/mL (≈ 10.8 µM) against E. fecalis.
`CCc1cc(Nc2cc(=O)n(CCCCN3CCN(c4ccc(F)cc4)CC3)c(=O)[nH]2)ccc1C` [Compound 46, 3-{4-[(4-fluorophenyl)piperazinyl]butyl}-6-(3-ethyl-4-methyylanilino)uracil]: on B.subtilis pol IIIC (setting [1]), the Ki is 70 nM. In addition, the MIC against E. fecium came out at 5 µg/mL (≈ 10.4 µM); in the assay on B. subtilis, 5 µg/mL (≈ 10.4 µM); in the assay on S.aureus (Smith) it was 20 µg/mL (≈ 41.7 µM); against E. fecalis it was 10 µg/mL (≈ 20.9 µM).
On to `CCc1cc(Nc2cc(=O)n(CCCCOC(=O)N3CCOCC3)c(=O)[nH]2)ccc1C` [Compound 47, 3-[4-(N-morpholinocarbonyloxy)butyl]-6-(3-ethyl-4-methylanilino)uracil], for which, on B.subtilis pol IIIC, the Ki amounted to 71 nM. In addition, the MIC is 5 µg/mL (≈ 11.6 µM) against E. fecium, less than 1.25 µg/mL against B. subtilis, 5 µg/mL (≈ 11.6 µM) against S.aureus (Smith) and 5 µg/mL (≈ 11.6 µM) against E. fecalis.
`CCc1cc(Nc2cc(=O)n(CCCCNS(=O)(=O)c3cccs3)c(=O)[nH]2)ccc1C` [Compound 48, 3-[4-(2-thienylsulfonylamino)butyl]-6-(3-ethyl-4-methylanilino)uracil] yielded a Ki at B.subtilis pol IIIC of 75 nM. In addition, the MIC against E. fecium was 2.5 µg/mL (≈ 5.4 µM); with B. subtilis it was 2.5 µg/mL (≈ 5.4 µM); against S.aureus (Smith), 5 µg/mL (≈ 10.8 µM); against E. fecalis, 5 µg/mL (≈ 10.8 µM).
At B.subtilis pol IIIC, `CCc1cc(Nc2cc(=O)n(CCCCNC(=O)C3CC3)c(=O)[nH]2)ccc1C` [Compound 49, 3-{4-[(cyclopropylcarbonyl)amino]butyl}-6-(3-ethyl-4-methylanilino)uracil] returned a Ki of 82 nM. The MIC turned out to be 2.5 µg/mL (≈ 6.5 µM) in the assay on E. fecium, 5 µg/mL (≈ 13 µM) in the assay on B. subtilis, 5 µg/mL (≈ 13 µM) with S.aureus (Smith) and 5 µg/mL (≈ 13 µM) in the assay on E. fecalis.
Regarding `CCc1cc(Nc2cc(=O)n(CCCCNC(=O)CCl)c(=O)[nH]2)ccc1C` [Compound 50, 3-{4-[(chloromethylcarbonyl)amino]butyl}-6-(3-ethyl-4-methylanilino)uracil], the Ki on B.subtilis pol IIIC was found to be 35 nM. In addition, the MIC was determined as 10 µg/mL (≈ 25.5 µM) against E. fecium, 2.5 µg/mL (≈ 6.36 µM) against B. subtilis, 5 µg/mL (≈ 12.7 µM) against S.aureus (Smith) and 5 µg/mL (≈ 12.7 µM) in the assay on E. fecalis.
As for `CCc1cc(Nc2cc(=O)n(CCCCOC(=O)CCl)c(=O)[nH]2)ccc1C` [Compound 51, 3-[4-(2-chloroacetoxy)butyl]-6-(3-ethyl-4-methylanilino)uracil], on B.subtilis pol IIIC, the Ki amounted to 40 nM. The MIC with E. fecium came out at 5 µg/mL (≈ 12.7 µM); in the assay with B. subtilis, 0.313 µg/mL (≈ 0.795 µM); with S.aureus (Smith) it was 10 µg/mL (≈ 25.4 µM); in the assay with E. fecalis it was 2.5 µg/mL (≈ 6.35 µM).
Taken in the same sequence, the figures for `CCc1cc(Nc2cc(=O)n(CCCCN3CCN(c4nc(C)cc(C(=O)O)n4)CC3)c(=O)[nH]2)ccc1C` [Compound 60, 3-{4-[4-(6-methyl-4-carboxy-2-pyrimidinyl)-1-piperazinyl]butyl}-6-(3-ethyl-4-methylanilino)uracil] were 16 nM, 40 µg/mL (≈ 76.7 µM), 40 µg/mL (≈ 76.7 µM), 40 µg/mL (≈ 76.7 µM) and 40 µg/mL (≈ 76.7 µM).
In the case of `CCc1cc(Nc2cc(=O)n(CCCCN3CCN(c4nc(C)cc(C(=O)OC)n4)CC3)c(=O)[nH]2)ccc1C` [Compound 61, 3-{4-[4-(6-methyl-4-methoxycarbonyl-2-pyrimidinyl)-1-piperazinyl]butyl}-6-(3-ethyl-4-methylanilino)uracil], the Ki at B.subtilis pol IIIC turned out to be 66 nM. In addition, the MIC against E. fecium was 20 µg/mL (≈ 37.3 µM); against B. subtilis, 10 µg/mL (≈ 18.7 µM); in the assay with S.aureus (Smith), 40 µg/mL (≈ 74.7 µM); in the assay on E. fecalis it was 20 µg/mL (≈ 37.3 µM).
`CCc1cc(Nc2cc(=O)n(CCCCN3CCN(c4ncc(C(=O)OC)c(C(F)(F)F)n4)CC3)c(=O)[nH]2)ccc1C` [Compound 62, 3-{4-[4-(4-trifluoromethyl-5-methoxycarbonyl-2-pyrimidinyl)-1-piperazinyl]butyl}-6-(3-ethyl-4-methylanilino)uracil] registered a Ki on B.subtilis pol IIIC of 550 nM. Also, the MIC in the assay on E. fecium, in the assay on B. subtilis, with S.aureus (Smith) and in the assay on E. fecalis was 80 µg/mL (≈ 136 µM) in each case.
For the compound `CCc1cc(Nc2cc(=O)n(CCCCCNC[C@H]3CCNC3)c(=O)[nH]2)ccc1C` [Compound 63, 3(S)-{5-[(3-pyrrolidinyl)methylamino]pentyl}-6-(3-ethyl-4methylanilino)uracil], the Ki on B.subtilis pol IIIC turned out to be 112 nM. The MIC in the assay with E. fecium turned out to be 80 µg/mL (≈ 193 µM); with B. subtilis, 20 µg/mL (≈ 48.4 µM); against S.aureus (Smith), 40 µg/mL (≈ 96.7 µM); with E. fecalis, 80 µg/mL (≈ 193 µM).
